From the supplement of paper PMC4862054 come the findings set out here.

In assay [1] the test system is CAL-120. Briefly: normalised response (% of control), CellTox Green; higher = less cell death (100 = DMSO, 0 = benzethonium chloride kill control). To be noted: incubation time: 72 h. An outline of the steps: (§1)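 Breast cancer cell lines, seeded at 20 µl suspension per well, were incubated for 72 h in 384-well plates containing compound at 5 concentrations. These concentrations rose in 10-fold steps over a 10,000-fold range set for each compound. CellTox Green fluorescence (485/520 nm) was read, then CellTiter-Glo luminescence after 10 min at room temperature, and each plate was normalised to 0.1 % DMSO (100) and a positive kill control (0). Values are normalised signals, each at one concentration.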

Assay [2] relates to MDA-MB-468. The description is as above. The note with it: incubation time: 72 h. The method, boiled down: as §1
Assay [3] has as its system BT-474. The assay is described as above. The note with it: incubation time: 72 h. The method, boiled down: as §1
For assay [4], the system named is MDA-MB-231. The description is as above. To be noted: incubation time: 72 h. An outline of the steps: as §1
The test system of assay [5] is HDQ-P1. The description is as above. The note with it: incubation time: 72 h. The method, boiled down:
as §1

The test system of assay [6] is BT-549. The assay is described as above. To be noted: incubation time: 72 h. An outline of the steps: as §1
Assay [7] concerns HCC1937. The assay is described as above. The note with it: incubation time: 72 h. The method, boiled down:
as §1

The test system of another assay is Hs578T. As to the kind of experiment: normalised viability (% of control), CellTiter-Blue; higher = more viable cells (about 100 = DMSO control). The note with it: 100 nM; incubation time: 72 h. The procedure: (§2)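 DSRT, CellTiter-Blue viability, 72 h incubation. Signal is normalised to DMSO and benzethonium chloride controls. Value is the normalised response at dose 3.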

For assay [8], the system named is CAL-120. The description is as above. The note with it: 100 nM; incubation time: 72 h. The procedure: as §2
For assay [9], the system named is MDA-MB-468. The description is as above. The note with it: 100 nM; incubation time: 72 h. The procedure: as §2
Another assay relates to CAL-85-1. The description is as above. The note with it: 10 nM; incubation time: 72 h. The procedure: as §2
For another assay, the system named is SK-BR-3. The assay is described as above. The note with it: 100 nM; incubation time: 72 h. The procedure: as §2
The subject of assay [10] is BT-474. Described as above. The note with it: 100 nM; incubation time: 72 h. The procedure: as §2
Assay [11] deals with MDA-MB-231. Described as above. The note with it: 100 nM; incubation time: 72 h. The procedure: as §2
Assay [12] deals with HDQ-P1. The assay is described as above. The note with it: 10 nM; incubation time: 72 h. The procedure: as §2
Assay [13] relates to BT-549. Described as above. The note with it: 100 nM; incubation time: 72 h. The procedure:
as §2

For the next assay, the system named is CAL-51. The assay is described as above. To be noted: 10 nM; incubation time: 72 h. The procedure: as §2
The subject of a further assay is MDA-MB-453. Described as above. To be noted: 10 nM; incubation time: 72 h. The procedure:
as §2

Another assay concerns HCC1143. The description is as above. The note with it: 100 nM; incubation time: 72 h. The procedure:
as §2

The next assay relates to MFM-223. The assay is described as above. To be noted: 100 nM; incubation time: 72 h. The procedure: as §2
Another assay deals with CAL-148. The assay is described as above. To be noted: 10 nM; incubation time: 72 h. The procedure: as §2
Assay [14] deals with HCC1937. Described as above. To be noted: 100 nM; incubation time: 72 h. The procedure: as §2
The subject of the next assay is MDA-MB-436. The assay is described as above. To be noted: 100 nM; incubation time: 72 h. The procedure:
as §2

The test system of another assay is DU-4475. The assay is described as above. To be noted: 10 nM; incubation time: 72 h. The procedure: as §2
Another assay concerns HCC1599. The description is as above. The note with it: 100 nM; incubation time: 72 h. The procedure:
as §2

Consider `COc1ccc(C2=N[C@@H](c3ccc(Cl)cc3)[C@@H](c3ccc(Cl)cc3)N2C(=O)N2CCNC(=O)C2)c(OC(C)C)c1` [Nutlin-3] (1000 nM), for which the normalised response in the assay on CAL-120 [1] worked out at 102%; in the assay on MDA-MB-468 [2] it was 108%; with BT-474 [3], 100%; in the assay on MDA-MB-231 [4], 104%; in the assay with HDQ-P1 [5], 112%; with BT-549 [6], 116%. Besides, the normalised response with HCC1937 [7] is 115%.

As for `COC1=CC(c2cc3ccccc3[nH]2)=N/C1=C\c1[nH]c(C)cc1C` [Obatoclax] (10000 nM), the normalised response came out at 99.2% in the assay with CAL-120 [1]; 82.9% in the assay with MDA-MB-468 [2]; 94.9% with BT-474 [3]; 0.38% in the assay with MDA-MB-231 [4]; 102% in the assay with HDQ-P1 [5]; 78.2% with BT-549 [6]. For the same compound, in the assay on HCC1937 [7], the normalised response came to 95.4%.

With `COC1=C2C[C@@H](C)C[C@H](OC)[C@H](O)[C@@H](C)/C=C(\C)[C@H](OC(N)=O)[C@@H](OC)/C=C\C=C(/C)C(=O)NC(=CC1=O)C2=O` [Geldanamycin] (10000 nM), the normalised response in the assay with CAL-120 [1] was 75.1%; in the assay with MDA-MB-468 [2] it was -27.4%; in the assay on BT-474 [3] it was 35.9%; in the assay on MDA-MB-231 [4], 6.32%; in the assay on HDQ-P1 [5], 65.2%; in the assay on BT-549 [6], 99%. The normalised response in the assay on HCC1937 [7] was -41.7%.

As for `CCOc1cc2ncc(C#N)c(Nc3ccc(OCc4ccccn4)c(Cl)c3)c2cc1NC(=O)/C=C/CN(C)C` [Neratinib] (1000 nM), the normalised response is 71.7% in the assay on CAL-120 [1]; -68.6% in the assay with MDA-MB-468 [2]; 77.1% in the assay with BT-474 [3]; 6.81% in the assay with MDA-MB-231 [4]; 55.7% in the assay with HDQ-P1 [5]; 101% with BT-549 [6]. For the same compound, the normalised response in the assay on HCC1937 [7] was 95.7%.

For `C[C@@]1(C(=O)Nc2ccc(F)nc2)CCCN1c1nc(Nc2cc(C3CC3)n[nH]2)c2cccn2n1` (1000 nM), the normalised response is 98.1% in the assay with CAL-120 [1]; 52.5% with MDA-MB-468 [2]; 97.7% in the assay with BT-474 [3]; 76.2% in the assay with MDA-MB-231 [4]; 82.1% in the assay with HDQ-P1 [5]; 104% with BT-549 [6]. Also, in the assay on HCC1937 [7], the normalised response is 93.8%.

Take `COc1cc(Nc2ncc(F)c(Nc3ccc4c(n3)NC(=O)C(C)(C)O4)n2)cc(OC)c1OC` [R406]: the normalised viability came to 112% in the assay on Hs578T; 90.8% in the assay with CAL-120 [8]; 92.3% in the assay with MDA-MB-468 [9]; 90.2% in the assay with CAL-85-1; 95.7% with SK-BR-3; 116% in the assay with BT-474 [10]. For the same compound, the normalised viability with MDA-MB-231 [11] came to 102%; in the assay with HDQ-P1 [12], 107%; in the assay on BT-549 [13] it was 105%; with CAL-51, 107%; with MDA-MB-453, 106%; in the assay on HCC1143, 84.4%. Further, the normalised viability stood at 96.4% with MFM-223; 91.2% in the assay with CAL-148; 125% with HCC1937 [14]; 96.1% with MDA-MB-436; 122% in the assay with DU-4475; 102% in the assay with HCC1599.

Turning to `CCS(=O)(=O)c1cccc(-c2cc(C(=O)NC3CCN(C)CC3)c(C)c3[nH]c4ncc(C)cc4c23)c1` [TAK-901] (1000 nM), the normalised response with CAL-120 [1] came to 84.2%; with MDA-MB-468 [2], 74.3%; in the assay on BT-474 [3] it was 91.5%; in the assay with MDA-MB-231 [4], 57.7%; in the assay with HDQ-P1 [5], 55%; with BT-549 [6] it was 41%. Besides, the normalised response in the assay on HCC1937 [7] was found to be 95.2%.
